From article PMC12649549, “Sequence Permutation Generated Lysine and Tryptophan-Rich Antimicrobial Peptides with Enhanced Therapeutic Index” (Antibiotics, 2025)
Like-named read-outs stand apart in the source and are kept apart here.

Experiments:
[1] = test system: A. baumannii 14B00100 (Acinetobacter sp., BCRC number 14B0100)
Outline: (§1)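 Salt and pH tolerance was assessed by determining MICs in LYM medium containing 50–300 mM NaCl, 0.5–2.5 mM MgCl2, or at pH 4.5–6.5, alongside MH broth. The inoculum was 5 × 10^5 CFU/mL.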

[2] = test system: A. baumannii 14B0091 (Acinetobacter sp., BCRC number 14B0091)
Outline: as §1

S. aureus ATCC 33591 = test system: S. aureus ATCC 33591
Outline: as §1

S. aureus ATCC 33593 = test system: S. aureus ATCC 33593
Outline: as §1

S. aureus ATCC 25923 = test system: S. aureus ATCC 25923
Outline: as §1

[3] = test system: Pseudomonas aeruginosa Migula (ATCC 27853)
Outline: as §1

[4] = test system: Escherichia coli (ATCC 25922)
Outline: as §1

[5] = LYM broth, 0 mM NaCl, 16 h, 37 °C
[6] = LYM broth, 50 mM NaCl, 16 h, 37 °C
[7] = LYM broth, 100 mM NaCl, 16 h, 37 °C
[8] = LYM broth, 200 mM (NaCl), 16 h, 37 °C
[9] = LYM broth, 300 mM (NaCl), 16 h, 37 °C
[10] = MH broth, 5 × 10^5 CFU/mL, 16 h, 37 °C, repeated three times

Ac-LKWLAKKKKWRKW-NH2 [Peptide W5K06]
MIC [1, 5]: 3.13 mg/L
MIC ([1]; LYM broth, 0.5 mM MgCl2): 3.13 mg/L
MIC ([1]; LYM broth, 1.5 mM MgCl2): 3.13 mg/L
MIC ([1]; LYM broth, 2.5 mM MgCl2): 3.13 mg/L
MIC [1, 6]: 3.13 mg/L
MIC [1, 7]: 6.25 mg/L
MIC [1, 8]: 25 mg/L
MIC [1, 9]: >50 mg/L
MIC ([1]; LYM broth, pH 4.5): 3.13 mg/L
MIC ([1]; LYM broth, pH 5.5): 3.13 mg/L
MIC ([1]; LYM broth, pH 6.5): 1.56 mg/L
MIC [1, 10]: 50 mg/L
MIC [2, 5]: 3.13 mg/L
MIC ([2]; LYM broth, 0.5 mM MgCl2): 3.13 mg/L
MIC ([2]; LYM broth, 1.5 mM MgCl2): 3.13 mg/L
MIC ([2]; LYM broth, 2.5 mM MgCl2): 3.13 mg/L
MIC [2, 6]: 3.13 mg/L
MIC [2, 7]: 6.25 mg/L
MIC [2, 8]: 50 mg/L
MIC [2, 9]: >50 mg/L
MIC ([2]; LYM broth, pH 4.5): 3.13 mg/L
MIC ([2]; LYM broth, pH 5.5): 3.13 mg/L
MIC ([2]; LYM broth, pH 6.5): 1.56 mg/L
MIC [2, 10]: 50 mg/L
MIC (S. aureus ATCC 33591; [5]): 12.5 mg/L
MIC (S. aureus ATCC 33591; LYM broth, 0.5 mM MgCl2): 12.5 mg/L
MIC (S. aureus ATCC 33591; LYM broth, 1.5 mM MgCl2): 12.5 mg/L
MIC (S. aureus ATCC 33591; LYM broth, 2.5 mM MgCl2): 25 mg/L
MIC (S. aureus ATCC 33591; [6]): 25 mg/L
MIC (S. aureus ATCC 33591; [7]): 50 mg/L
MIC (S. aureus ATCC 33591; [8]): 50 mg/L
MIC (S. aureus ATCC 33591; [9]): >50 mg/L
MIC (S. aureus ATCC 33591; LYM broth, pH 4.5): 12.5 mg/L
MIC (S. aureus ATCC 33591; LYM broth, pH 5.5): 6.25 mg/L
MIC (S. aureus ATCC 33591; LYM broth, pH 6.5): 6.25 mg/L
MIC (S. aureus ATCC 33591; [10]): >50 mg/L
MIC (S. aureus ATCC 33593; [5]): 12.5 mg/L
MIC (S. aureus ATCC 33593; LYM broth, 0.5 mM MgCl2): 12.5 mg/L
MIC (S. aureus ATCC 33593; LYM broth, 1.5 mM MgCl2): 25 mg/L
MIC (S. aureus ATCC 33593; LYM broth, 2.5 mM MgCl2): 25 mg/L
MIC (S. aureus ATCC 33593; [6]): 25 mg/L
MIC (S. aureus ATCC 33593; [7]): 50 mg/L
MIC (S. aureus ATCC 33593; [8]): >50 mg/L
MIC (S. aureus ATCC 33593; [9]): >50 mg/L
MIC (S. aureus ATCC 33593; LYM broth, pH 4.5): 12.5 mg/L
MIC (S. aureus ATCC 33593; LYM broth, pH 5.5): 6.25 mg/L
MIC (S. aureus ATCC 33593; LYM broth, pH 6.5): 6.25 mg/L
MIC (S. aureus ATCC 33593; [10]): >50 mg/L
MIC (S. aureus ATCC 25923; [5]): 6.25 mg/L
MIC (S. aureus ATCC 25923; LYM broth, 0.5 mM MgCl2): 6.25 mg/L
MIC (S. aureus ATCC 25923; LYM broth, 1.5 mM MgCl2): 6.25 mg/L
MIC (S. aureus ATCC 25923; LYM broth, 2.5 mM MgCl2): 6.25 mg/L
MIC (S. aureus ATCC 25923; [6]): 12.5 mg/L
MIC (S. aureus ATCC 25923; [7]): 25 mg/L
MIC (S. aureus ATCC 25923; [8]): 50 mg/L
MIC (S. aureus ATCC 25923; [9]): >50 mg/L
MIC (S. aureus ATCC 25923; LYM broth, pH 4.5): 6.25 mg/L
MIC (S. aureus ATCC 25923; LYM broth, pH 5.5): 6.25 mg/L
MIC (S. aureus ATCC 25923; LYM broth, pH 6.5): 3.13 mg/L
MIC (S. aureus ATCC 25923; [10]): 50 mg/L
MIC [3, 5]: 6.25 mg/L
MIC ([3]; LYM broth, 0.5 mM MgCl2): 6.25 mg/L
MIC ([3]; LYM broth, 1.5 mM MgCl2): 6.25 mg/L
MIC ([3]; LYM broth, 2.5 mM MgCl2): 25 mg/L
MIC [3, 7]: 25 mg/L
MIC [3, 8]: >50 mg/L
MIC [3, 9]: >50 mg/L
MIC ([3]; LYM broth, pH 4.5): 25 mg/L
MIC ([3]; LYM broth, pH 5.5): 6.25 mg/L
MIC ([3]; LYM broth, pH 6.5): 3.13 mg/L
MIC [3, 10]: 50 mg/L
MIC [4, 5]: 6.25 mg/L
MIC ([4]; LYM broth, 0.5 mM MgCl2): 6.25 mg/L
MIC ([4]; LYM broth, 1.5 mM MgCl2): 6.25 mg/L
MIC ([4]; LYM broth, 2.5 mM MgCl2): 6.25 mg/L
MIC [4, 6]: 12.5 mg/L
MIC [4, 7]: 50 mg/L
MIC [4, 8]: >50 mg/L
MIC [4, 9]: >50 mg/L
MIC ([4]; LYM broth, pH 4.5): 12.5 mg/L
MIC ([4]; LYM broth, pH 5.5): 6.25 mg/L
MIC ([4]; LYM broth, pH 6.5): 3.13 mg/L
MIC [4, 10]: 25 mg/L
